{"source": "paper PMC12031237", "about": "“Toxicity Assessment of (4Z)-Lachnophyllum and (4Z,8Z)-Matricaria Lactones: Implications for Environmental Safety of Bioherbicides” (Toxins, 2025)", "key": {"[1]": {"test_system": "D. magna", "experiment": "Literature acute toxicity of herbicides to D. magna", "type": "in vivo, Daphnia magna", "from_the_text": "(§1) Table 3 EC50 values from the literature for the aquatic test species exposed to multiple commonly used herbicides. | column: Hazard Ranking"}, "[2]": {"test_system": "D. magna", "details": "48 h, cited from earlier work"}, "[3]": {"test_system": "R. subcapitata", "experiment": "Literature growth inhibition of R. subcapitata by herbicides", "type": "cell-based, Raphidocelis subcapitata", "from_the_text": "as §1"}, "[4]": {"test_system": "R. subcapitata", "details": "cited from earlier work"}, "[5]": {"test_system": "A. fischeri", "experiment": "Literature acute toxicity of herbicides to A. fischeri", "type": "cell-based, Aliivibrio fischeri", "from_the_text": "as §1"}, "[6]": {"test_system": "A. fischeri", "details": "30 min, cited from earlier work"}, "[7]": {"test_system": "R. subcapitata", "experiment": "Algal growth inhibition test, ISO 8692", "details": "positive control", "procedure": "The algal growth inhibition test (72 h) with R. subcapitata was carried out according to ISO 8692 [58]. The algal density was determined by spectrophotometric analysis (DR5000, Hach Lange GbH, Weinheim, Germany) at 670 nm. The concentrations tested correspond to 0.19, 0.39, 0.78, 1.56, and 3.12 mg L^−^1 and a negative control of 0 mg L^−^1. The growth inhibition was calculated as the difference in growth at the end of the test of the sample and the control group. Toxicity tests were carried out in triplicate.\n(§2) Data analysis was conducted using RStudio for Windows (Version 2024.09.1). Dose–response models were applied to estimate the effective concentrations (EC10 and EC50) for the tested endpoints using the “drc” package. For D. magna, the data were modeled with a binomial log-logistic approach, whereas data for R. subcapitata, A. fischeri and L. sativum were fitted to log-logistic models with the upper limit constrained to 100. Furthermore, to ensure assay sensitivity and validity, a positive control exposed to potassium dichromate for the aquatic species and copper chloride for C. elegans was tested under the same experimental conditions."}, "[8]": {"test_system": "A. fischeri", "experiment": "Bioluminescence (light) inhibition test, ISO 11348-3", "details": "30 min exposure; standard error in brackets, n = 3", "procedure": "The bioluminescence inhibition test (30 min) was detected with the A. fischeri (NRRLB-11177) supplied by MicroBioTest, Gent, Belgium, and according to ISO 11348-3 [59]. The bioluminescence was determined by the luminometer Microtox (Model 500 analyzer, New Castle, DE, USA) at 490 nm. To provide the required osmotic pressure for the bacterium, the stock solution was diluted to perform the test in saline water solution (2% sodium chloride, NaCl). The concentrations tested correspond to 0.19, 0.39, 0.78, 1.56, and 3.12 mg L^−^1 and a negative control of 0 mg L^−^1. Toxicity tests were performed in triplicate with a control, and the percentage luminescence inhibition was expressed as the ratio of the decrease in bacterial light production to the remaining light.\nas §2"}, "[9]": {"test_system": "D. magna", "experiment": "Crustacean immobility acute test, ISO 6341", "type": "in vivo, Daphnia magna", "procedure": "The immobility acute test (48 h) with D. magna was conducted according to ISO 6341 [60]. D. magna was selected from laboratory stock cultures at the Hygiene Laboratory of the Department of Biology of the University of Naples Federico II, placed in ISO medium, and fed daily with the microalgae R. subcapitata. For the test, five neonates (third brood, <24 h old) were exposed in 10 mL of ISO medium to the following corresponding concentrations: 0.22, 0.43, 0.86, 1.73, 3.46, 6.91, 13.83, 27.65, and 55.30 mg L^−^1 and a negative control of 0 mg L^−^1. Each concentration had 4 replicates, and immobility was assessed after 24 and 48 h of exposure.\nas §2"}, "[10]": {"test_system": "C. elegans", "experiment": "Nematode survival bioassay in soil, ASTM E2172-01", "type": "in vivo", "details": "24 h exposure, positive control", "procedure": "The nematode bioassay was carried out using the Caenorhabditis elegans wild-type strain N2, Bristol variant, according to the ASTM E2172—01 Standard Method (2014). Culture was maintained on NGM (nematode growth media) plates seeded with Escherichia coli (uracil-deficient OP50 strain) and stored at 20 °C. The tests were conducted using age-synchronized adult nematodes, obtained by lysing gravid nematodes with a bleaching solution (10 g/L NaOH, 10.5 g/L NaOCl), followed by centrifugation and washing with an M9 mineral medium (2.2 mM KH2PO4, 4.2 mM Na2HPO4, 85.6 mM NaCl, and 1 mM MgSO4). The synchronized nematodes were then transferred to NGM agar plates and left to recover overnight.\nSoil samples (2.33 g) were hydrated to 35–45% of their dry weight using K-medium in centrifuge tubes. Ten worms were transferred to each tube and exposed to the soil samples for 24 h at 20 °C. […] Treatments were performed in triplicate, with worms kept unfed during the exposure period. Nematodes were extracted by centrifugation (2000 rpm, 2 min) using silica gel (Ludox TM 50, Sigma-Aldrich, St. Louis, MO, USA) with a specific density of 1.13 g/mL. The supernatant was then transferred to 100 mm glass Petri dishes and washed with Keller (K) medium. Extracted individuals were counted under a microscope (40× magnification), with mortality as the measured endpoint. Test validity required a minimum of 80% nematode recovery and 90% survival in the control group."}, "[11]": {"details": "GHS ranking of 48 h EC50 of ref 49"}, "[12]": {"details": "GHS ranking of 72 h EC50 of ref 49"}, "[13]": {"details": "GHS ranking of 96 h EC50 of ref 47"}, "[14]": {"details": "GHS ranking of 30 min EC50 of ref 49"}}, "note": "Like-named read-outs stand apart in the source and are kept apart here.", "data": [{"smiles": "CCC(=O)Nc1ccc(Cl)c(Cl)c1", "note": "[Propanil]", "values": [{"measurement": "Hazard Ranking", "setting": "[1]; [11]", "result": "*** (toxic (<1 mg L^−1 ≤ 10 mg L^−1))"}, {"measurement": "EC50", "setting": "[2]; ref 49", "result": 2.00, "unit": "mg/L"}, {"measurement": "Hazard Ranking", "setting": "[3]; [12]", "result": "**** (Very toxic (≤1 mg L^−1))"}, {"measurement": "EC50", "setting": "[4]; 72 h", "result": 0.05, "unit": "µg/mL"}]}, {"smiles": "O=C(O)CNCP(=O)(O)O", "note": "[Glyphosate]", "values": [{"measurement": "Hazard Ranking", "setting": "[1]; GHS ranking of 48 h EC50 (commercial formulation) of ref 39", "result": "*** (toxic (<1 mg L^−1 ≤ 10 mg L^−1))"}, {"measurement": "Hazard Ranking", "setting": "[1]; GHS ranking of 48 h EC50 (isopropylamine salt) of ref 39", "result": "*** (toxic (<1 mg L^−1 ≤ 10 mg L^−1))"}, {"measurement": "Hazard Ranking", "setting": "[1]; GHS ranking of 48 h EC50 of ref 40", "result": "*** (toxic (<1 mg L^−1 ≤ 10 mg L^−1))"}, {"measurement": "Hazard Ranking", "setting": "[1]; GHS ranking of 48 h EC50 of ref 41", "result": "*** (toxic (<1 mg L^−1 ≤ 10 mg L^−1))"}, {"measurement": "Hazard Ranking", "setting": "[1]; GHS ranking of 48 h LC50 of ref 42", "result": "** (harmful: (<10 mg L^−1 ≤ 100 mg L^−1))"}, {"measurement": "Hazard Ranking", "setting": "[1]; GHS ranking of 48 h LC50 of ref 43", "result": "* (not harmful: (>100 mg L^−1))"}, {"measurement": "Hazard Ranking", "setting": "[1]; GHS ranking of 48 h LC50 of ref 44", "result": "**** (Very toxic (≤1 mg L^−1))"}, {"measurement": "Hazard Ranking", "setting": "[1]; GHS ranking of 48 h LC50 of ref 45", "result": "*** (toxic (<1 mg L^−1 ≤ 10 mg L^−1))"}, {"measurement": "Hazard Ranking", "setting": "[1]; GHS ranking of 48 h LC50 of ref 46", "result": "** (harmful: (<10 mg L^−1 ≤ 100 mg L^−1))"}, {"measurement": "Hazard Ranking", "setting": "[5]; GHS ranking of 30 min EC50 of ref 48", "result": "*** (toxic (<1 mg L^−1 ≤ 10 mg L^−1))"}, {"measurement": "EC50", "setting": "[6]; ref 48", "result": 2.93, "unit": "µg/mL"}, {"measurement": "EC50", "setting": "[2]; average of multiple tests performed, given as isopropylamine salt", "result": 4.30, "unit": "°° mg L^−1"}, {"measurement": "EC50", "setting": "[2]; average of multiple tests performed, rounded up (formulation commercially available)", "result": 7.15, "unit": "° mg L^−1"}, {"measurement": "EC50", "setting": "[2]; ref 40", "result": 4.20, "unit": "mg/L"}, {"measurement": "EC50", "setting": "[2]; ref 41", "result": 8.90, "unit": "mg/L"}, {"measurement": "LC50", "setting": "[2]; ref 42", "result": 21.34, "unit": "µg/mL"}, {"measurement": "LC50", "setting": "[2]; ref 43", "result": 190.0, "unit": "µg/mL"}, {"measurement": "LC50", "setting": "[2]; ref 44", "result": 0.012, "unit": "µg/mL"}, {"measurement": "LC50", "setting": "[2]; ref 45", "result": 9.34, "unit": "µg/mL"}, {"measurement": "LC50", "setting": "[2]; ref 46", "result": 11.68, "unit": "µg/mL"}, {"measurement": "Hazard Ranking", "setting": "[3]; [13]", "result": "*** (toxic (<1 mg L^−1 ≤ 10 mg L^−1))"}, {"measurement": "EC50", "setting": "[4]; 96 h", "result": 5.55, "unit": "µg/mL"}]}, {"smiles": "[K+].[K+].[O]=[Cr](=[O])([O-])[O][Cr](=[O])(=[O])[O-]", "note": "[potassium dichromate, reference compound]", "values": [{"measurement": "EC50 (growth inhibition)", "setting": "[7]", "result": 0.987, "unit": "µg/mL"}, {"measurement": "EC50 (light inhibition)", "setting": "[8]", "result": 3.730, "unit": "µg/mL"}, {"measurement": "EC50 (immobilization)", "setting": "[9]; 24 h exposure", "result": 10.501, "unit": "µg/mL"}, {"measurement": "EC50 (immobilization)", "setting": "[9]; 48 h exposure", "result": 5.66, "unit": "µg/mL"}]}, {"smiles": "[Cl][Cu][Cl]", "note": "[copper chloride, reference compound]", "values": [{"measurement": "EC50", "setting": "[10]", "result": 42.37, "unit": "µg/mL"}]}, {"smiles": "CCNc1nc(Cl)nc(NC(C)C)n1", "note": "[Atrazine]", "values": [{"measurement": "Hazard Ranking", "setting": "[1]; [11]", "result": "**** (Very toxic (≤1 mg L^−1))"}, {"measurement": "Hazard Ranking", "setting": "[5]; [14]", "result": "** (harmful: (<10 mg L^−1 ≤ 100 mg L^−1))"}, {"measurement": "EC50", "setting": "[6]; ref 49", "result": 39.80, "unit": "µg/mL"}, {"measurement": "EC50", "setting": "[2]; ref 49", "result": 0.05, "unit": "mg/L"}, {"measurement": "Hazard Ranking", "setting": "[3]; [12]", "result": "**** (Very toxic (≤1 mg L^−1))"}, {"measurement": "EC50", "setting": "[4]; 72 h", "result": 0.02, "unit": "µg/mL"}]}, {"smiles": "CCc1cccc(C)c1N(C(=O)CCl)C(C)COC", "note": "(stereo not shown) [Metolachlor]", "values": [{"measurement": "Hazard Ranking", "setting": "[1]; [11]", "result": "** (harmful: (<10 mg L^−1 ≤ 100 mg L^−1))"}, {"measurement": "Hazard Ranking", "setting": "[5]; [14]", "result": "** (harmful: (<10 mg L^−1 ≤ 100 mg L^−1))"}, {"measurement": "Hazard Ranking", "setting": "[5]; GHS ranking of 30 min EC50 of ref 50", "result": "* (not harmful: (>100 mg L^−1))"}, {"measurement": "Hazard Ranking", "setting": "[5]; GHS ranking of 30 min EC50 of ref 51", "result": "* (not harmful: (>100 mg L^−1))"}, {"measurement": "EC50", "setting": "[6]; ref 49", "result": 17.00, "unit": "µg/mL"}, {"measurement": "EC50", "setting": "[6]; ref 50", "result": 265.00, "unit": "µg/mL"}, {"measurement": "EC50", "setting": "[6]; ref 51", "result": 214.85, "unit": "µg/mL"}, {"measurement": "EC50", "setting": "[2]; ref 49", "result": 23.50, "unit": "mg/L"}, {"measurement": "Hazard Ranking", "setting": "[3]; [12]", "result": "**** (Very toxic (≤1 mg L^−1))"}, {"measurement": "Hazard Ranking", "setting": "[3]; [13]", "result": "*** (toxic (<1 mg L^−1 ≤ 10 mg L^−1))"}, {"measurement": "EC50", "setting": "[4]; 72 h", "result": 0.055, "unit": "µg/mL"}, {"measurement": "EC50", "setting": "[4]; 96 h", "result": 5.51, "unit": "µg/mL"}]}]}
